Assay results from patent US20250313563A1, “GLYCOGEN SYNTHASE KINASE 3 INHIBITORS AND USES THEREOF” (The Broad Institute, Inc., priority 2022, published 2025).
Where two headings read alike, the source gives them in different places.

Assays:
[1] = target: GSK3α (GST-full length GSK3α) (Homo sapiens (Human), UniProt P49840); experiment: GSK3α TR-FRET kinase assay; type: biochemical
How it was run: (§1)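 In this time-resolved FRET format, kinase reactions contained 200 nM biotinylated, S645-phosphorylated glycogen synthase 631-650 peptide and either isoform-specific ATP (2 μM GSK3b, 4 μM GSK3α) or 1 mM ATP. They were quenched with EDTA after 100 min at ambient temperature. Inhibition curves gave IC50 values.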

[2] = target: GSK3b (GST-full length GSK3b) (Homo sapiens (Human), UniProt P49841); experiment: GSK3b TR-FRET kinase assay; type: biochemical
GSK3b (GST-full length GSK3b), sequence (P49841 whole entry): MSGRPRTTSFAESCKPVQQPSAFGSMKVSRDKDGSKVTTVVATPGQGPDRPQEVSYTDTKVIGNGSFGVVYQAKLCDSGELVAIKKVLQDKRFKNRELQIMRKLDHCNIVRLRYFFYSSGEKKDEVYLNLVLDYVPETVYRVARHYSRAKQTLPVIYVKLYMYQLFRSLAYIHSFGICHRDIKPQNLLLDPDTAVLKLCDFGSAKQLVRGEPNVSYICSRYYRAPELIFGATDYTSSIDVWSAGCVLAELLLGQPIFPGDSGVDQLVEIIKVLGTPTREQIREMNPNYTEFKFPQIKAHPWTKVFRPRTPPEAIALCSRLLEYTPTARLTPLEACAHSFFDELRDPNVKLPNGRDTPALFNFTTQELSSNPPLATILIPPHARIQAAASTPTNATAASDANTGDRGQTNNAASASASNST
How it was run: as §1

[3] = 1 nM GSK3α, 4 μM ATP, 30 minute preincubation, Table 16, read-out: GSK3-A TR-FRET BIOCHEMICAL (TR-FRET)
[4] = 1 nM GSK3b, 2 μM ATP, 30 minute preincubation, Table 16, read-out: GSK3-B TR-FRET BIOCHEMICAL (TR-FRET)
[5] = 1 nM GSK3α, 4 μM ATP, 30 minute preincubation, Table 16, read-out: GSK3-A TR-FRET BIOCHEMICAL (TR-FRET), IC50
[6] = GSK3-A (TR-FRET 1 mM ATP), GMean, IC50, 1 mM ATP, geometric mean
[7] = 1 nM GSK3b, 2 μM ATP, 30 minute preincubation, Table 16, read-out: GSK3-B TR-FRET BIOCHEMICAL (TR-FRET), IC50
[8] = GSK3-B (TR-FRET 1 mM ATP), GMean, IC50, 1 mM ATP, geometric mean
[9] = 1 nM GSK3α, 4 μM ATP, 30 minute preincubation, read-out: GSK3-A TR-FRET BIOCHEMICAL (TR-FRET), IC50
[10] = 1 nM GSK3b, 2 μM ATP, 30 minute preincubation, read-out: GSK3-B TR-FRET BIOCHEMICAL (TR-FRET), IC50

GSK3α (GST-full length GSK3α), sequence (P49840 whole entry, canonical isoform): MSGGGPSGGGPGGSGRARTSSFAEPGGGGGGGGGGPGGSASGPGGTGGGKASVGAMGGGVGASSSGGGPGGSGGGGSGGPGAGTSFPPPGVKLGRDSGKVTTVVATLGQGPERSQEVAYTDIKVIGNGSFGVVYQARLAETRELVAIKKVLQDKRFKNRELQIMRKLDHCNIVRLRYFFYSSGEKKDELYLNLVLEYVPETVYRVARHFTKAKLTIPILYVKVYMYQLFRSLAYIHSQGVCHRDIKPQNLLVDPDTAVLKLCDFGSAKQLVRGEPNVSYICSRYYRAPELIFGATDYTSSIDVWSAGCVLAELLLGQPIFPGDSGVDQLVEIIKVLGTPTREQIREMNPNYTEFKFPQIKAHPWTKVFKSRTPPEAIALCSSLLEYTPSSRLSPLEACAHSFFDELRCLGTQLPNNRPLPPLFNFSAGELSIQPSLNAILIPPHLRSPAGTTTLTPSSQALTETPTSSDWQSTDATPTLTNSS

Row | SMILES | IC50 [1, 3] [nM] | IC50 [2, 4] [nM] | IC50 [1, 5] [nM] | IC50 [2, 7] [nM] | other results
1 | CC1(C)CC(=O)C2=C(C1)Nc1n[nH]cc1C21CCCSCC1 (centres unmarked) [Compound 913126] | ≤ 100 | 100 to 1000 |  |  | 
2 | CC1(C)CC(=O)C2=C(C1)Nc1n[nH]cc1C21CCN(S(=O)(=O)C2CCOCC2)CC1 [Compound 913127] |  |  | ≤ 100 | ≤ 100 | IC50 [1, 6]: ≤ 100 nM; IC50 [2, 8]: 100 to 1000 nM
3 | CC1(C)CC(=O)C2=C(C1)Nc1n[nH]cc1C21CCN(S(=O)(=O)C2CCCCC2)CC1 [Compound 913128] |  |  | ≤ 100 | ≤ 100 | IC50 [1, 6]: ≤ 100 nM; IC50 [2, 8]: 100 to 1000 nM
4 | CC(C)S(=O)(=O)N1CCC2(CC1)C1=C(CC(C)(C)CC1=O)Nc1n[nH]cc12 [Compound 913129] |  |  | ≤ 100 | ≤ 100 | IC50 [1, 6]: ≤ 100 nM; IC50 [2, 8]: 100 to 1000 nM
5 | CCC1(c2cccc(S(=O)(=O)C(C)C)c2)C2=C(CC(C)(C)CC2=O)Nc2n[nH]cc21 (centres unmarked) [Compound 913134] |  |  | 100 to 1000 | 1000 to 5000 | 
6 | CCC1(c2cccc(S(=O)(=O)C(C)C)c2)C2=C(CC(C)(C)CC2=O)Nc2n[nH]cc21 (centres unmarked) [Compound 913135] |  |  | ≤ 100 | ≤ 100 | IC50 ([1]; read-out: GSK3-A (TR-FRET 1 mM ATP), GMean, IC50, 1 mM ATP, geometric mean): ≤ 100 nM; IC50 ([2]; read-out: GSK3-B (TR-FRET 1 mM ATP), GMean, IC50, 1 mM ATP, geometric mean): 100 to 1000 nM
7 | Cc1cccc2c1CC[C@]21C2=C(CC(C)(C)CC2=O)Nc2n[nH]cc21 [Compound 913136] |  |  | ≤ 100 | 100 to 1000 | 
8 | Cc1cccc2c1CC[C@@]21C2=C(CC(C)(C)CC2=O)Nc2n[nH]cc21 [Compound 913137] |  |  | > 5000 | > 5000 | 
9 | CC1(C)CC(=O)C2=C(C1)Nc1n[nH]cc1[C@]21C[C@@]2(CCN(CC(F)F)C2)C1 [Compound 913139] |  |  |  |  | IC50 [1, 9]: 100 to 1000 nM; IC50 [2, 10]: 100 to 1000 nM
10 | CC[C@@]1(c2cccc(N3CCC3(C)C)c2)C2=C(CC(C)(C)CC2=O)Nc2n[nH]cc21 [Compound 913140] |  |  | ≤ 100 | 100 to 1000 | 
11 | CCC1(c2cccc(N3CCC3(C)C)c2)C2=C(CC(C)(C)CC2=O)Nc2n[nH]cc21 (centres unmarked) [Compound 913141] |  |  | 100 to 1000 | 1000 to 5000 | 
12 | CCC1(c2cccc(C(F)(F)F)c2)C2=C(CNC2=O)Nc2n[nH]cc21 (centres unmarked) [Compound 913156] | 100 to 1000 | > 5000 |  |  | 
13 | CCC1(c2cccc(C(C)(C)F)c2)C2=C(CCN(C)C2=O)Nc2n[nH]cc21 (centres unmarked) [Compound 913178] |  |  |  |  | IC50 [1, 9]: 100 to 1000 nM; IC50 [2, 10]: 1000 to 5000 nM
14 | CC1(C)CC(=O)C2=C(C1)Nc1n[nH]cc1[C@]21CO[C@H](C2CC2)C1 [Compound 913184] |  |  | 100 to 1000 | 1000 to 5000 | 
15 | CCC1(c2cccc(C(F)(F)F)c2)C2=C(Nc3n[nH]cc31)C(C)(C)N(C)C2=O (centres unmarked) [Compound 913198] | ≤ 100 | 100 to 1000 |  |  | 
16 | CCC1(c2cccc(Br)c2)C2=C(CC(C)NC2=O)Nc2n[nH]cc21 (centres unmarked) [Compound 913225] |  |  |  |  | IC50 [1, 9]: 100 to 1000 nM; IC50 [2, 10]: 1000 to 5000 nM

Further lines, with some results ahead:

Row | IC50 [1, 3] [nM] | IC50 [2, 4] [nM] | IC50 [1, 5] [nM] | IC50 [2, 7] [nM] | SMILES | other results
17 | 100 to 1000 | 1000 to 5000 |  |  | CC[C@@H]1C[C@@]2(CO1)C1=C(CC(C)(C)CC1=O)Nc1n[nH]cc12 [Compound 913213] | 
18 | 100 to 1000 | 1000 to 5000 |  |  | CC[C@H]1C[C@@]2(CO1)C1=C(CC(C)(C)CC1=O)Nc1n[nH]cc12 [Compound 913214] | 
19 | 100 to 1000 | 1000 to 5000 |  |  | CC[C@@H]1C[C@]2(CO1)C1=C(CC(C)(C)CC1=O)Nc1n[nH]cc12 [Compound 913215] | 
20 | 100 to 1000 | 100 to 1000 |  |  | CC[C@H]1C[C@]2(CO1)C1=C(CC(C)(C)CC1=O)Nc1n[nH]cc12 [Compound 913216] | 
21 |  |  | ≤ 100 | 100 to 1000 | CC1(C)CC(=O)C2=C(C1)Nc1n[nH]cc1C21CCCc2ccccc21 (centres unmarked) [Compound 913219] | 
22 |  |  | > 5000 | > 5000 | CC[C@]1(c2cccc(-c3cc(C)nc(C)c3)c2)C2=C(CC(C)(C)CC2=O)Nc2n[nH]cc21 [Compound 913223] | 
23 | ≤ 100 | ≤ 100 |  |  | CC1(C)CC(=O)C2=C(C1)Nc1n[nH]cc1C21CCN(S(=O)(=O)c2ccc3c(c2)CCO3)CC1 [Compound 913251] | 
24 |  |  | 100 to 1000 | 100 to 1000 | CCC1(c2cccc(N(C)c3ccc(OC)nc3)c2)C2=C(CC(C)(C)CC2=O)Nc2n[nH]cc21 (centres unmarked) [Compound 913252] | 
